Activity calls are given as the source filed them. The rule behind the calls is not given here.
Columns and labels:
[1] = target: Trypsin (Homo sapiens, UniProt P07477+P07478+P35030); assay: Stability of the compound assessed as trypsin (unknown origin)-mediated compound hydrolysis after 1 hrs by SDS-PAGE analysis; format: ADME, protein assay
[2] = target: Chymotrypsin (Homo sapiens, UniProt Q99895+P17538+P40313+Q6GPI1); assay: Stability of the compound assessed as chymotrypsin (unknown origin)-mediated compound hydrolysis after 1 hrs by SDS-PAGE analysis; format: ADME, protein assay
[3] = system: Pseudomonas aeruginosa; assay: Ratio of MBC against Pseudomonas aeruginosa ATCC 27853 after 50 passages to MBC against Pseudomonas aeruginosa ATCC 27853; format: functional
[4] = Stability of the compound assessed as Tritirachium album proteinase K-mediated compound hydrolysis after 1 hrs by SDS-PAGE analysis; format: ADME; conditions: parengyodontium album
[5] = Stability of the compound assessed as pepsin (unknown origin)-mediated compound hydrolysis after 1 hrs by SDS-PAGE analysis; format: ADME; conditions: human
[6] = system: Escherichia coli; assay: Bactericidal activity against Escherichia coli ATCC 25922 incubated for 4 hrs followed by culture spread on agar plates and cultured overnight in presence of 0.125 to 4 mg/ml proteinase K; format: functional, organism-based
[7] = system: RAW264.7; assay: Inhibition of LPS-stimulated TNFalpha production in mouse RAW264.7 cells at 16 uM after 20 hrs by […]; format: functional, cell-based
[8] = Toxicity in ICR mouse assessed as effect on AST levels in serum at 20 mg/kg, ip administered every 12 hrs for 3 days measured at 72 hrs post dose; format: organism-based; conditions: in vivo
[9] = system: Escherichia coli; assay: Induction of cytoplasmic membrane depolarization in Escherichia coli ATCC 25922 assessed as induction cytoplasmic ONPG release at 4 uM up to 120 mins by DiSC3-5 dye-based fluorescence spectrophotometric method; format: functional, organism-based
[10] = system: Escherichia coli; assay: Induction of membrane disruption in Escherichia coli ATCC 25922 assessed as pore formation at MBC after 1 hr by SEM analysis; format: functional, organism-based
[11] = Stability of the compound assessed as Tritirachium album proteinase K-mediated compound hydrolysis by LC-MS analysis; format: ADME; conditions: parengyodontium album
[12] = system: Lipid bilayer; assay: Induction of membrane disruption in LPS/PC/PG unilamellar vesicles assessed as calcein-entrapped liposome leakage at 2 uM after 15 mins by fluorescence assay
[13] = system: Escherichia coli; assay: Induction of membrane disruption in Escherichia coli ATCC 25922 assessed as outer membrane separation at MBC after 1 hr by TEM analysis; format: functional, organism-based
[14] = Drug localisation at cell membrane of Escherichia coli ATCC 25922 at MBC after 30 mins using FITC-labelled peptides by propidium iodide-staining based confocal fluorescent microscopy; format: ADME, cell membranes; conditions: 0.5 h
[15] = system: Lipid bilayer; assay: Induction of membrane disruption in POPC/POPG unilamellar vesicles assessed as calcein-entrapped liposome leakage at 1 to 64 uM after 15 mins by fluorescence assay
[16] = Toxicity in ICR mouse assessed as effect on ALT levels in serum at 40 mg/kg, ip administered every 12 hrs for 3 days measured at 72 hrs post dose; format: organism-based; conditions: in vivo
[17] = Renal toxicity in ICR mouse assessed as effect on BUN levels in serum at 20 mg/kg, ip administered every 12 hrs for 3 days measured at 72 hrs post dose; format: organism-based; conditions: in vivo
[18] = system: Escherichia coli; assay: Bactericidal activity against Escherichia coli ATCC 25922 using FITC-labelled peptide incubated for 4 hrs followed by culture spread on agar plates and cultured overnight; format: functional; conditions: ATCC 25922, 4 h
[19] = system: Lipid bilayer; assay: Induction of membrane disruption in LPS/POPC/POPG unilamellar vesicles assessed as calcein-entrapped liposome leakage after 15 mins by fluorescence assay
[20] = system: Escherichia coli; assay: Induction of membrane disruption in Escherichia coli ATCC 25922 assessed as membrane content leakage at MBC after 1 hr by SEM analysis; format: functional, organism-based
[21] = system: Lipopolysaccharide (LPS); assay: Displacement of BODIPY-TR-cadaverine from Escherichia coli O111:B4 LPS after 1 hr by spectrofluorophotometric method
[22] = Toxicity in ICR mouse assessed as effect on ALT levels in serum at 20 mg/kg, ip administered every 12 hrs for 3 days measured at 72 hrs post dose; format: organism-based; conditions: in vivo
[23] = system: Escherichia coli; assay: Bactericidal activity against Escherichia coli ATCC 25922 assessed as elimination of bacterial cells at MBC after 60 mins by time kill assay; format: functional
[24] = system: Lipopolysaccharide (LPS); assay: Displacement of BODIPY-TR-cadaverine from Escherichia coli O111:B4 LPS at 4 uM after 1 hr by spectrofluorophotometric method relative to control
[25] = Cytotoxicity against mouse RAW264.7 cells assessed as survival rate at 16 uM after 18 to 24 hrs by MTT assay relative to control; format: cell-based; conditions: read-out: Activity
[26] = system: Escherichia coli; assay: Induction of cell membrane disruption in Escherichia coli ATCC 25922 at MBC after 30 mins using FITC-labelled peptides by propidium iodide-staining based confocal fluorescent microscopy; format: organism-based
[27] = system: Escherichia coli; assay: Induction of membrane disruption in Escherichia coli ATCC 25922 assessed as formation of broken membrane fragments at MBC after 1 hr by SEM analysis; format: functional, organism-based
[28] = Toxicity in ICR mouse assessed as effect on AST levels in serum at 40 mg/kg, ip administered every 12 hrs for 3 days measured at 72 hrs post dose; format: organism-based; conditions: in vivo
[29] = system: Escherichia coli; assay: Bactericidal activity against Escherichia coli O111:B4 assessed as reduction in colony forming units at MBC after 90 mins in presence of LPS; format: functional, organism-based
[30] = system: Escherichia coli; assay: Induction of membrane disruption in Escherichia coli ATCC 25922 assessed as sparse cytoplasmic distribution at MBC after 1 hr by TEM analysis; format: functional, organism-based
[31] = system: Lipopolysaccharide (LPS); assay: Binding affinity to Escherichia coli O111:B4 LPS by SPR method
[32] = Stability of the compound assessed as pepsin (unknown origin)-mediated compound hydrolysis by LC-MS analysis; format: ADME; conditions: human
[33] = system: Escherichia coli; assay: Induction of membrane disruption in Escherichia coli ATCC 25922 assessed as pore formation at MBC after 1 hr by TEM analysis; format: functional, organism-based
[34] = Renal toxicity in ICR mouse assessed as effect on BUN levels in serum at 40 mg/kg, ip administered every 12 hrs for 3 days measured at 72 hrs post dose; format: organism-based; conditions: in vivo
[35] = system: Escherichia coli; assay: Bactericidal activity against Escherichia coli ATCC 25922 assessed as elimination of bacterial cells at MBC after 30 mins by time kill assay; format: functional
[36] = Cytotoxicity against mouse RAW264.7 cells assessed as cell viability at 4 uM after 18 to 24 hrs by MTT assay relative to control; format: cell-based; conditions: read-out: Activity
[37] = system: HEK-293T; assay: Cytotoxicity against HEK293T cells assessed as cell death at 32 uM after 18 to 24 hrs by MTT assay relative to control; format: cell-based; conditions: human
[38] = Hemolytic activity against human RBC at 128 uM after 1 hr; format: ADME, cell-based, Erythrocyte; conditions: red blood cells (erythrocytes), read-out: Activity
[39] = system: Escherichia coli; assay: Bactericidal activity against Escherichia coli ATCC 25922 assessed as elimination of bacterial cells at MBC after 5 mins by time kill assay; format: functional
[40] = Cytotoxicity against IPECJ2 cells assessed as cell death at 16 uM after 18 to 24 hrs by MTT assay relative to control; format: cell-based, Sus scrofa; conditions: pig

With `CC[C@H](C)[C@H](NC(=O)CN)C(=O)NCC(=O)N[C@@H](C)C(=O)N[C@H](C(=O)N[C@@H](CC(C)C)C(=O)N[C@@H](CCCCN)C(=O)N[C@H](C(=O)N[C@@H](CC(C)C)C(=O)N[C@H](C(=O)N[C@H](C(=O)NCC(=O)N[C@@H](CC(C)C)C(=O)N1CCC[C@H]1C(=O)N[C@@H](C)C(=O)N[C@@H](CC(C)C)C(=O)N[C@H](C(=O)N[C@@H](CO)C(=O)N[C@@H](Cc1c[nH]c2ccccc12)C(=O)N[C@H](C(=O)N[C@@H](CCCCN)C(=O)N[C@@H](CCCNC(=N)N)C(=O)N[C@@H](CCCCN)C(=O)N[C@@H](CCCNC(=N)N)C(=O)N[C@@H](CCC(N)=O)C(=O)N[C@@H](CCC(N)=O)C(N)=O)[C@@H](C)CC)[C@@H](C)CC)[C@@H](C)O)[C@@H](C)O)C(C)C)C(C)C` [MELITTIN] the Stability [1] was “Unstable”, the Stability [2] was “Unstable” and the Ratio [3] was 256. For the same compound, the Stability [4] was “Unstable” and the Stability [5] was “Unstable”.
With H-IKPIIKPIIKPIIKPIIKPIIKPIIKPI-NH2 the Activity [6] was “Active”.
With H-IRPIIRPIIRPIIRPIIRPIIRPIIRPI-NH2 the inhibition [7] was “Active”, the Activity [8] was “Toxic” and the Activity [9] was “Active”. For the same compound, the Activity [10] was “Active”, the Stability [11] was “Stable” and the Activity [12] was 30%. For the same compound, the Activity [13] was “Active”, the Drug uptake [14] was “Active” and the Activity [15] was “Active”. The Activity [16] was “Non-Toxic”, the Activity [17] was “Toxic” and the MBC [18] was 4 µM. For the same compound, the Activity [19] was “Dose-dependent effect”, the Activity [20] was “Active” and the Activity [21] was “Dose-dependent effect”. The Activity [22] was “Toxic”, the Activity [23] was over 99.99% and the Activity [24] was 70%. The Activity [6] was “Active”, the viability at 16 µM [25] was over 80% and the Activity [26] was “Active”. The Activity [27] was “Active”, the Activity [28] was “Non-Toxic” and the Activity [29] was “inactive”. For the same compound, the Activity [30] was “Active”, the Activity [31] was “Dose-dependent effect” and the Stability [32] was “Stable”. For the same compound, the Activity [33] was “Active” and the Activity [34] was “Non-Toxic”.
H-LKPLLKPLLKPLLKPLLKPLLKPLLKPL-NH2 showed an Activity [35] of over 99.99%.
H-LRPLLRPLLRPLLRPLLRPLLRPLLRPL-NH2 showed a viability at 4 µM [36] of 7.52%, an Activity [37] of 80% and a hemolysis at 1 h, 128 µM [38] of over 40%. It also gave an Activity [39] of over 99.99% and an Activity [40] of 80%.
